# Experimental data: ChEMBL document CHEMBL4411312, “Design, Synthesis, and Biological Evaluation of New 1-(Aryl-1 H-pyrrolyl)(phenyl)methyl-1 H-imidazole Derivatives as Antiprotozoal Agents” (J Med Chem, 2019)
# Active and inactive are the calls of the source. The calls are words filed in the database; no cut-off is given here.
# How the values were obtained:
# [1] = biological target: T1, CYP1A2 (Homo sapiens, UniProt P05177); test: Safety index, ratio of IC50 for test compound to IC50 for furafylline for inhibition of human CYP1A2 in presence of NADPH by luciferase reporter gene assay; type: ADME; conditions: read-out: Ratio IC50
# T1 sequence (P05177 whole entry): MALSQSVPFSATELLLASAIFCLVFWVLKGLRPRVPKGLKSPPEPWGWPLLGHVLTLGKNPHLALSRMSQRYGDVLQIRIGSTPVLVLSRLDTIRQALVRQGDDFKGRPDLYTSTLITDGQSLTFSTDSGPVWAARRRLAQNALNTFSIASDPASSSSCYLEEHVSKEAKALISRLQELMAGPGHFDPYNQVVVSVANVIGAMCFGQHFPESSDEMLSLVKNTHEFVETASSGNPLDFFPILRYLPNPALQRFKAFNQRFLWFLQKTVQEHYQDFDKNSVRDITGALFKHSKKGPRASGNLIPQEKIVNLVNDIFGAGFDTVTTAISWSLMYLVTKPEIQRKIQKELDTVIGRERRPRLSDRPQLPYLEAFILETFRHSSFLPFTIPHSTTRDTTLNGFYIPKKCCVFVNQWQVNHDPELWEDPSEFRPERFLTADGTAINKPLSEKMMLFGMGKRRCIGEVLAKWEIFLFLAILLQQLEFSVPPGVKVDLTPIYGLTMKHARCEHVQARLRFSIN
# [2] = biological target: T2, Cytochrome P450 1A2 (Homo sapiens, UniProt P05177); test: Inhibition of human CYP1A2 in presence of NADPH by luciferase reporter gene assay; type: ADME
# T2 sequence (P05177 whole entry): T1 sequence (P05177 whole entry)
# [3] = biological target: Cytochrome P450 2D6 (Homo sapiens, UniProt P10635); test: Inhibition of human CYP2D6 in presence of NADPH by luciferase reporter gene assay; type: ADME
# Cytochrome P450 2D6, sequence (P10635 whole entry): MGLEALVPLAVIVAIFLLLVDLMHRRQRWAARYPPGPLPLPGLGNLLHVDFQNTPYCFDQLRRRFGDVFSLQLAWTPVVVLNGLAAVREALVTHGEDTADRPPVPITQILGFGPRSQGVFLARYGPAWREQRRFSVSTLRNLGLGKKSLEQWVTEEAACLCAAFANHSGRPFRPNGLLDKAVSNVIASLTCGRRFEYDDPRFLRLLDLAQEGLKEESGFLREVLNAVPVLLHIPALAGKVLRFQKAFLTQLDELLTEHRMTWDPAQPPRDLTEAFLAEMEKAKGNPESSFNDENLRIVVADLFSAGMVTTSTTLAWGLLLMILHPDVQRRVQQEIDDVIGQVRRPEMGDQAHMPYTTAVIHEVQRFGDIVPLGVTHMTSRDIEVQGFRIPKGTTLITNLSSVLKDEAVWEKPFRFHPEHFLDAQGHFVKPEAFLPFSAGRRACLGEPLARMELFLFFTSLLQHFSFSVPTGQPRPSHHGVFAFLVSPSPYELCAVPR
# [4] = biological target: Cytochrome P450 3A4 (Homo sapiens, UniProt P08684); test: Inhibition of human CYP3A4 in presence of NADPH by luciferase reporter gene assay; type: ADME
# Cytochrome P450 3A4, sequence (P08684 whole entry): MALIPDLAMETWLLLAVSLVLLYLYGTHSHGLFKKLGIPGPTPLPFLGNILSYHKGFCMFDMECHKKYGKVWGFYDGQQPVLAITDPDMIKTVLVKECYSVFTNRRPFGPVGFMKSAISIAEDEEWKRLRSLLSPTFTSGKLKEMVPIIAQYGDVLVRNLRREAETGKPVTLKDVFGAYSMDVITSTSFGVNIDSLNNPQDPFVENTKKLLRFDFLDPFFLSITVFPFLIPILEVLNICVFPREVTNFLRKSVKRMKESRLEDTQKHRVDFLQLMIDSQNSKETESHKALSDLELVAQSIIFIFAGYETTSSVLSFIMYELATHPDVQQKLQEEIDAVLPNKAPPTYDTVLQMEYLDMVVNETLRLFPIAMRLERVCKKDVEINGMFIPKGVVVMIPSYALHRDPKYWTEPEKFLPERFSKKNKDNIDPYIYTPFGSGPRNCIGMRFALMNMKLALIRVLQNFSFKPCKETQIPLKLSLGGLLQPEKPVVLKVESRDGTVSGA
# [5] = system: Trypanosoma cruzi; test: Antiprotozoal activity against Trypanosoma cruzi Tulahuen C2C4 amastigotes infected in rat L6 cells after 96 hrs by inverted microscopic analysis; type: functional, organism-based; conditions: Tulahuen C2C4, L6, 96 h
# [6] = system: Trypanosoma cruzi; test: Potency index, ratio of benznidazole IC50 to compound IC50 for Trypanosoma cruzi Tulahuen C2C4 amastigotes infected in rat L6 cells after 96 hrs by inverted microscopic analysis; type: functional
# [7] = Toxicity in BALB/c mouse infected with Trypanosoma cruzi CL Brener trypomastigotes assessed as loss of body weight at 25 mg/kg, ip bid treated for 4 consecutive days starting at 3 days post infection; type: organism-based; conditions: in vivo, 72 h
# [8] = Toxicity in BALB/c mouse infected with Trypanosoma cruzi CL Brener trypomastigotes assessed as hunched posture at 25 mg/kg, ip bid treated for 4 consecutive days starting at 3 days post infection; type: organism-based; conditions: in vivo, 72 h
# [9] = Cytotoxicity against rat L6 cels assessed as reduction in cell viability after 72 hrs by Alamar Blue dye-based fluorometric analysis; conditions: L6 cells
# [10] = Toxicity in BALB/c mouse infected with Trypanosoma cruzi CL Brener trypomastigotes assessed as lack of grooming at 25 mg/kg, ip bid treated for 4 consecutive days starting at 3 days post infection; type: organism-based; conditions: in vivo, 72 h
# [11] = Selectivity index, ratio of CC50 for rat L6 cels to IC50 for erythrocytic stage of Plasmodium falciparum K1; type: toxicity; conditions: L6 cells, read-out: Ratio IC50
# [12] = system: Trypanosoma cruzi; test: Antiprotozoal activity against Trypanosoma cruzi CL Brener trypomastigotes infected in BALB/c mouse assessed as reduction in parasitemia at 25 mg/kg, ip bid treated for 4 consecutive days starting at 3 days post infection by bioluminescence assay relative to control; type: functional; parameters: scale not given: the % may be the effect or the level left
# [13] = biological target: Sterol 14-alpha demethylase (Trypanosoma cruzi (strain CL Brener), UniProt Q7Z1V1); test: Binding affinity to Trypanosoma cruzi CYP51 by UV-vis spectrophotometry
# Sterol 14-alpha demethylase, sequence (Q7Z1V1 whole entry): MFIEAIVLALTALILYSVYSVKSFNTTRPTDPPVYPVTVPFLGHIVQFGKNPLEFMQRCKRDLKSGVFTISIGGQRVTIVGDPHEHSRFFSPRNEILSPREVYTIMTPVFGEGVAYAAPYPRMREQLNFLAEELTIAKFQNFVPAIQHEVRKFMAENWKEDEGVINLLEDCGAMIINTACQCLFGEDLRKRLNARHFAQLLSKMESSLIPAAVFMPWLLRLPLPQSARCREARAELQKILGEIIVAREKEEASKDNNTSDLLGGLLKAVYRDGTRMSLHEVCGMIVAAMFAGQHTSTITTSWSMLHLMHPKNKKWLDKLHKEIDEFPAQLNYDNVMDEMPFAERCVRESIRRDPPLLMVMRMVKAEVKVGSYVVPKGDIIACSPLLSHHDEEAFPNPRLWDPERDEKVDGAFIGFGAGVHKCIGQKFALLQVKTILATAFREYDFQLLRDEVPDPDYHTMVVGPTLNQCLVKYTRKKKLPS
# [14] = system: Plasmodium falciparum; test: Antiprotozoal activity against erythrocytic stage of Plasmodium falciparum K1 after 48 hrs by [3H]- hypoxanthine incorporation assay; type: functional, organism-based
# [15] = Selectivity index, ratio of CC50 for rat L6 cels to IC50 for Leishmania donovani MHOM/ET/67/L82 axenic amastigote; type: toxicity; conditions: L6 cells, read-out: Ratio IC50
# [16] = Toxicity in BALB/c mouse infected with Trypanosoma cruzi CL Brener trypomastigotes assessed as reduced mobility at 25 mg/kg, ip bid treated for 4 consecutive days starting at 3 days post infection; type: organism-based; conditions: in vivo, 72 h
# [17] = system: Leishmania donovani; test: Antiprotozoal activity against Leishmania donovani MHOM/ET/67/L82 axenic amastigote after 72 hrs by inverted microscopic analysis; type: functional, organism-based; conditions: MHOM/ET/67/L82, 72 h
# [18] = system: Trypanosoma brucei rhodesiense; test: Antiprotozoal activity against Trypanosoma brucei rhodesiense STIB900 trypomastigotes after 72 hrs by Alamar Blue dye-based fluorometric analysis; type: functional, organism-based; conditions: STIB900, 72 h
# [19] = biological target: Sterol 14-alpha demethylase (Trypanosoma cruzi (strain CL Brener)) (UniProt Q7Z1V1); test: Binding affinity to Trypanosoma cruzi CYP51 at 5 to 10 uM by UV-vis spectrophotometry
# Sterol 14-alpha demethylase (Trypanosoma cruzi (strain CL Brener)), sequence (Q7Z1V1 whole entry, looked up): as the sequence (Q7Z1V1 whole entry) above
IC50 [2],IC50 [3],IC50 [4],IC50 [5],Kd [13],IC50 [14],IC50 [17],IC50 [18],Activity [19],SMILES,selectivity ratio [1],Ratio IC50 [6],Activity [7],Activity [8],CC50 at 72 h [9],Activity [10],selectivity ratio [11],Activity [12],selectivity ratio [15],Activity [16]
7000 nM,1300 nM,800 nM,35 nM,–,–,–,–,–,Clc1ccc(-c2c[nH]cc2C(c2ccc(Cl)cc2Cl)n2ccnc2)cc1 (racemic),3,–,–,–,–,–,–,–,–,–
400 nM,4000 nM,1400 nM,3 nM,5500 nM,780 nM,3010 nM,7390 nM,–,Clc1ccc(-c2cc(C(c3ccc(Cl)cc3)n3ccnc3)c[nH]2)cc1 (stereo unspecified),–,330 - 825,Non-Toxic,Non-Toxic,6650 nM,Non-Toxic,9,99.5%,2,Non-Toxic
1200 nM,2000 nM,900 nM,2 nM,–,630 nM,2160 nM,38700 nM,Active,C=CCn1cc(C(c2ccc(Cl)cc2)n2ccnc2)cc1-c1ccc(Cl)cc1 (stereo unspecified),–,330 - 825,–,–,7760 nM,–,12,–,4,–
2000 nM,3000 nM,1100 nM,3 nM,–,1410 nM,5700 nM,40000 nM,Active,Cn1cc(C(c2ccc(Cl)cc2)n2ccnc2)cc1-c1ccc(Cl)cc1 (stereo unspecified),–,330 - 825,Non-Toxic,Non-Toxic,12100 nM,Non-Toxic,9,99.4%,2,Non-Toxic
